Reference: publication PMC4537286, “Permeation of Therapeutic Drugs in Different Formulations across the Airway Epithelium In Vitro” (PLoS ONE, 2015)
Counter-ions that a name gives are not always drawn. Like-named read-outs stand apart in the source and are kept apart here.

Legend:
Calu-3 cells [1] = details: cited from earlier work; for Papp values of rhodamine 123 reported: ref [68],[70]
[2] = Transport studies across Calu-3 monolayers, compounds applied in solution (SLE, ALE), Papp; details: human; for Papp at 120 min, 10 μg/ml: pH 7.4, Papp values for fluorescein, n = 12
Calu-3 cells [3] = assay: as above
Calu-3 cells [4] = assay: Transport of aerosolized compounds across Calu-3 monolayers (AID_M MicroSprayer, AID_D DP-4 insufflator); details: for Dye transport relative to SLE: application with DP-4 Dry Powder Insufflator (AID_D); for Dye transport relative to SLE incubation: application with MicroSprayer IA-1C Aerosolizer (AID_M)
[5] = Size of particles delivered by DP-4 Dry Powder Insufflator, bright-field microscopy; assay type: physicochemical; details: roughly spherical particles
Procedure: Particles that were delivered by the DP-4 Dry Powder Insufflator were analyzed by bright-field microscopy. […] Sizes were measured using Cell^D Imaging software (Olympus).

Calu-3 cells [6] = details: human, pH 7.4
Calu-3 cells [7] = tested on: Calu-3 cells
in vitro = details: human, pH 7.4, Papp
[8] = pH 7.4, Papp, ALE (air-liquid interface culture, compound in buffer), n = 4
[9] = pH 7.4, Papp, SLE (submersed culture, compound in buffer), n = 4

Row | Papp at 120 min [2, 8] | Papp at 120 min [2, 9] | Ratio Papp (ALE/ SLE) (Calu-3 cells [3]) | Dye transport relative to SLE (Calu-3 cells [4]) | Dye transport relative to SLE incubation (Calu-3 cells [4]) | Papp at 120 min, 10 μg/ml ([2]; Air-liquid interface culture, 0.4 μm pores) | Papp at 120 min, 10 μg/ml ([2]; Air-liquid interface culture, 3 μm pores) | Papp at 120 min, 10 μg/ml ([2]; Submersed culture, 3 μm pores) | Compound | Papp values of rhodamine 123 reported (Calu-3 cells [1]; ALE) | Papp values of rhodamine 123 reported (Calu-3 cells [1]; SLE) | Size of delivered single particles [5] | Papp at 120 min ([2]; pH 7.4) | Amount of budesonide in the cells (Calu-3 cells [3]; cell lysis after the last sample, total recovered amount 19.3±0.7 μg) | Change of budesonide transport on co-incubation with formoterol (Calu-3 cells [3]; solution, SLE and ALE, mixture 50 μM budesonide and 0.5 mM formoterol fumarate) | Transport in the fixed dose combination Symbicort versus applied alone (Calu-3 cells [4]; DP-4 Dry Powder Insufflator (AID_D), n = 3) | Papp values of fluorescein published by other groups (Calu-3 cells [1]; SLE, ref [8],[41],[49],[65]–[69]) | Papp (Calu-3 cells [6]) | Ratio Papp (ALE/ SLE) (Calu-3 cells [6]) | Transport in the fixed dose combination Symbicort versus applied alone (Calu-3 cells [7]) | Papp (in vitro)
1 | 0.27 ± 0.09 ×10⁻⁶ cm/s | 0.07 ± 0.02 ×10⁻⁶ cm/s | 3.86 | 48.2 times | 3.2 times |  |  |  | COC(=O)c1ccccc1-c1c2ccc(=N)cc-2oc2cc(N)ccc12 [Rhodamine 123, rhodamine 123] | 2.27 ×10⁻⁶ cm/s | 0.49 ×10⁻⁶ cm/s |  |  |  |  |  |  |  |  |  | 
2 | 0.27 ± 0.08 ×10⁻⁶ cm/s | 0.09 ± 0.04 ×10⁻⁶ cm/s | 3.00 | 131.7 times | 4.3 times | 0.23 ± 0.04 ×10⁻⁶ cm/s | 0.27 ± 0.08 ×10⁻⁶ cm/s | 0.09 ± 0.04 ×10⁻⁶ cm/s | O=C1OC2(c3ccc(O)cc3Oc3cc(O)ccc32)c2ccccc21 [Fluorescein, Sodium fluorescein] |  |  | 1.1±0.3 μm |  |  |  |  | 0.1 x 10–6 cm/s |  |  |  | 
3 |  |  |  |  |  |  |  |  | COc1ccc(CC(C)NCC(O)c2ccc(O)c(NC=O)c2)cc1 (stereo not shown) [Formoterol, formoterol fumarate dihydrate] |  |  |  |  |  |  |  |  | 1.72±0.24 10^−6 cm/s | 1.73 | significantly higher | 2.98 ± 0.79 ×10⁻⁶ cm/s

Row | Compound | Papp at 120 min [2, 8] | Papp at 120 min [2, 9] | Ratio Papp (ALE/ SLE) (Calu-3 cells [3]) | Dye transport relative to SLE (Calu-3 cells [4]) | Dye transport relative to SLE incubation (Calu-3 cells [4]) | Papp at 120 min, 10 μg/ml ([2]; Air-liquid interface culture, 0.4 μm pores) | Papp at 120 min, 10 μg/ml ([2]; Air-liquid interface culture, 3 μm pores) | Papp at 120 min, 10 μg/ml ([2]; Submersed culture, 3 μm pores) | Papp values of rhodamine 123 reported (Calu-3 cells [1]; ALE) | Papp values of rhodamine 123 reported (Calu-3 cells [1]; SLE) | Size of delivered single particles [5] | Papp at 120 min ([2]; pH 7.4) | Amount of budesonide in the cells (Calu-3 cells [3]; cell lysis after the last sample, total recovered amount 19.3±0.7 μg) | Change of budesonide transport on co-incubation with formoterol (Calu-3 cells [3]; solution, SLE and ALE, mixture 50 μM budesonide and 0.5 mM formoterol fumarate) | Transport in the fixed dose combination Symbicort versus applied alone (Calu-3 cells [4]; DP-4 Dry Powder Insufflator (AID_D), n = 3) | Papp values of fluorescein published by other groups (Calu-3 cells [1]; SLE, ref [8],[41],[49],[65]–[69]) | Papp (Calu-3 cells [6]) | Ratio Papp (ALE/ SLE) (Calu-3 cells [6]) | Transport in the fixed dose combination Symbicort versus applied alone (Calu-3 cells [7]) | Papp (in vitro)
4 | CCCC1O[C@@H]2C[C@H]3[C@@H]4CCC5=CC(=O)C=C[C@]5(C)[C@H]4[C@@H](O)C[C@]3(C)[C@]2(C(=O)CO)O1 (stereo partly shown) [Budesonide, budesonide] |  | 13.18 ± 0.06 ×10⁻⁶ cm/s | 1.36 |  |  |  |  |  |  |  | 3.2± 1.3 μm | 17.9 ± 1.36 ×10⁻⁶ cm/s | 0.96 µg | did not show changes | no differences |  |  |  |  | 
